For assay [1], the system named is L. major promastigotes. The experiment in a line: L. major promastigotes from 4-days cultures, 3H-thymidine uptake (Examples 5, 14). Type of assay: cell-based, Leishmania major. The following applies: Leishmania major, Table 14.1, read-out: percentage inhibition of promastigotes (upper figure); for inhibition at 0.5 µg/mL: 0.5 μg/ml; for inhibition at 1 µg/mL: 1 μg/ml; for inhibition at 5 µg/mL: 5 μg/ml; for inhibition at 10 µg/mL: 10 μg/ml. As for the experimental part: Parasite cultures. The same parasite culture as described in Example 4. Promastigotes were harvested on day 4 of the culture and used for the parasiticidal assay.
Effect on promastigotes. […] Following incubation, […] of ^3H-thymidine was added to each well and further incubated for 18 hrs. Promastigotes were then harvested on filter paper by means of a cell harvester (Skatron, Lierbyen, Norway), extensively washed with distilled water and counted in a scintillation counter (Minaxi Ti-Carb 4000, United Technologies, Packard, USA).
L. major promastigotes. The L. major promastigotes were prepared as described in Example 4 and harvested after 4 days.

Assay [2] concerns P. falciparum. Briefly: P. falciparum growth in vitro (Table 14.1, strain not stated). It is filed as cell-based. The following applies: Plasmodium falciparum; for inhibition at 0.5 µg/mL: 0.5 μg/ml; for inhibition at 1 µg/mL: 1 μg/ml; for inhibition at 10 µg/mL: 10 μg/ml. Here is the method:
The P. falciparum experimental setup was as described in Example 15.
Testing of the effect of drugs and serum on the in vitro growth of the parasites. The experiments in which compounds were tested for their ability to inhibit parasite growth were performed by a modification of the method originally described by Jensen et al. (1982). Fifty μl of parasitized erythrocytes (parasitemia approximately 1%) in a concentration of 5×10^8/ml and 50 μl of RPMI medium containing different concentrations of the test compound was added to each well of a 96 well flat-bottomed microtiter plate (Nunc). The cultures were then incubated for 48 hours, 24 hours before termination of the culture adding 20 μl of 3-H-hypoxanthine (40 uCi/ml) (New England Nuclear, Boston, Mass., USA) was added to each well. The cultures were then harvested onto glass fiber filters using a Skatron cell harvester (Skatron, Lierbyen, Norway), and the incorporation of 3-H-hypoxanthine into the DNA of dividing parasites was determined by liquid scintillation spectrometry.

Assay [3] concerns human lymphocytes. The experiment in a line: Lymphocyte Proliferation Assay, 3H-thymidine incorporation (Example 13). The following applies: Homo sapiens, Lymphocyte, read-out: inhibition of lymphocytes (lower figure).
The test system of assay [4] is chloroquine resistant P. falciparum DD2 strain. The experiment in a line: In vitro growth of P. falciparum DD2, 3H-hypoxanthine uptake (Example 15). The following applies: title: percentage inhibition of 3H-hypoxanthine uptake. Type of assay: cell-based, Plasmodium falciparum.
Assay [5] deals with P. yoelii strain YM. Briefly: P. yoelii strain YM infection in mice, parasitemia and mortality (Example 16). It is filed as in vivo, BALB/c mice. The following applies: Table 16.11; for % parasitemia (mean ± SEM): 3 h after infection, D + 1 to D + 5.
Where [6] appears, read: read-out: inhibition of malaria parasites (middle figure) (converted).
Setting [7] is: 5 μg/ml, read-out: inhibition of malaria parasites (middle figure) (converted).

Where two headings read alike, the source gives them in different places.

Turning to `COc1ccc(/C=C/C(=O)c2ccccc2O)c(OC)c1`, in assay [1], the inhibition at 0.5 µg/mL amounted to 19.2 ± 18.1%, the inhibition at 1 µg/mL stood at 37.6 ± 18.3%, the inhibition at 5 µg/mL was found to be 89.4 ± 13.8% and the inhibition at 10 µg/mL came out at 98.3 ± 1%. Moreover, in assay [2] (setting [6]), the inhibition at 0.5 µg/mL was 0%, the inhibition at 1 µg/mL was 0.8% and the inhibition at 10 µg/mL was 67.9%. The inhibition at 5 µg/mL in assay [2] (setting [7]) is 23.4%. In addition, in assay [3], the inhibition at 0.5 µg/mL is 3%, the inhibition at 1 µg/mL was 5.5%, the inhibition at 5 µg/mL is 2.6% and the inhibition at 10 µg/mL was 0%.

Take `COc1cccc(OC)c1/C=C/C(=O)c1ccc(O)cc1`: the inhibition at 0.5 µg/mL in assay [1] is 11.4 ± 9.2%; in assay [2] (setting [6]), 0%; in assay [3], 0%. The inhibition at 1 µg/mL in assay [1] is 21.5 ± 10.6%; in assay [2] (setting [6]), 16.6%; in assay [3], 3.3%. The inhibition at 5 µg/mL in assay [1] is 77.5 ± 4.3%; in assay [2] (setting [7]) it was 71%; in assay [3] it was 2.3%. Moreover, the inhibition at 10 µg/mL in assay [1] was 93.1 ± 4.6%; in assay [2] (setting [6]) it was 90.6%; in assay [3] it was 4.4%.

For the compound `COc1ccc(/C=C/C(=O)c2ccc(O)cc2)c(OC)c1` [2,4-Dimethoxy-4′-hydroxychalcone, 2,4-dimethoxy-4′-hydroxychalcone], the “Growth in % of control (mean ± SEM)” value is given as 18.6 ± 7.2% in assay [4] (0.5 μg/ml), 21.8 ± 7.3% in assay [4] (1 μg/ml), 46.8 ± 6.6% in assay [4] (5 μg/ml) and 68.0 ± 4.7% in assay [4] (10 μg/ml). Moreover, the “% parasitemia (mean ± SEM)” value is 4.8 ± 1.5% in assay [5] (D + 6, i.p. 20 mg/kg twice daily); 46.4 ± 2.1% in assay [5] (D + 6, i.p. 30 mg/kg twice daily); 12.4 ± 2.4% in assay [5] (D + 8, i.p. 20 mg/kg twice daily); 70.8 ± 3.5% in assay [5] (D + 8, i.p. 30 mg/kg twice daily); 58.6 ± 14% in assay [5] (D + 10, i.p. 20 mg/kg twice daily); 25% in assay [5] (D + 12, i.p. 20 mg/kg twice daily). Moreover, the “% parasitemia (mean ± SEM)” value is on record as 6% in assay [5] (D + 14, i.p. 20 mg/kg twice daily) and 0% in assay [5] (D + 16, i.p. 20 mg/kg twice daily). In addition, the “mortality (no. of dead mice/total no. of tested mice)” value in assay [5] (D + 6, i.p. 40 mg/kg twice daily to D + 5) was “(5/5)”; in assay [5] (D + 8, i.p. 30 mg/kg twice daily to D + 5) it was “(1/5)”; in assay [5] (D + 10, i.p. 30 mg/kg twice daily to D + 5) it was “(5/5)”; in assay [5] (D + 12, i.p. 20 mg/kg twice daily to D + 5) it was 3/5; in assay [5] (D + 14, i.p. 20 mg/kg twice daily to D + 5), 3/5; in assay [5] (D + 16, i.p. 20 mg/kg twice daily to D + 5), 3/5.

As for `COc1ccc(/C=C/C(=O)c2ccccc2)c(OC)c1` [drawing 67], in assay [1], the inhibition at 0.5 µg/mL came to 14.5 ± 11.6%, the inhibition at 1 µg/mL was 27 ± 13.7%, the inhibition at 5 µg/mL was found to be 77.8 ± 11.3% and the inhibition at 10 µg/mL was determined as 95.5 ± 3.8%. In assay [2] (read-out: inhibition of malaria parasites (middle figure)), the inhibition at 5 µg/mL was 35.6%. Moreover, in assay [2] (setting [6]), the inhibition at 0.5 µg/mL was 0%, the inhibition at 1 µg/mL is 14.7% and the inhibition at 10 µg/mL is 81.8%. In assay [3], the inhibition at 0.5 µg/mL was 9.1%, the inhibition at 1 µg/mL is 9.2%, the inhibition at 5 µg/mL is 2% and the inhibition at 10 µg/mL is 3.1%.

For `COc1ccc(/C=C/C(=O)c2ccc(O)cc2)c(OC)c1` [drawing 70], in assay [1], the inhibition at 0.5 µg/mL came out at 20 ± 20.6%, the inhibition at 1 µg/mL turned out to be 29 ± 22.2%, the inhibition at 5 µg/mL came to 66.9 ± 15.9% and the inhibition at 10 µg/mL was found to be 90.9 ± 7.4%. Moreover, in assay [2] (setting [6]), the inhibition at 0.5 µg/mL is 2.2%, the inhibition at 1 µg/mL was 14.8% and the inhibition at 10 µg/mL was 64.2%. Besides, the inhibition at 5 µg/mL in assay [2] (setting [7]) is 31.6%. In addition, in assay [3], the inhibition at 0.5 µg/mL was 1.5%, the inhibition at 1 µg/mL was 6.3%, the inhibition at 5 µg/mL was 2.4% and the inhibition at 10 µg/mL is 4%.

With `COc1ccc(OC)c(/C=C/C(=O)c2ccc(O)cc2)c1` [drawing 71], in assay [1], the inhibition at 0.5 µg/mL was 34.3%, the inhibition at 1 µg/mL is 61.9%, the inhibition at 5 µg/mL is 96.2% and the inhibition at 10 µg/mL was 99.1%. In assay [2] (setting [6]), the inhibition at 0.5 µg/mL is 15.2%, the inhibition at 1 µg/mL is 23.1% and the inhibition at 10 µg/mL is 93.1%. Besides, in assay [2] (setting [7]), the inhibition at 5 µg/mL is 71%. Besides, in assay [3], the inhibition at 0.5 µg/mL was determined as 3.2%, the inhibition at 1 µg/mL was 6.9%, the inhibition at 5 µg/mL is 78.8% and the inhibition at 10 µg/mL came to 98.2%.

Consider `COc1ccc(/C=C/C(=O)c2ccc(O)cc2)cc1OC` [drawing 73], for which, in assay [1], the inhibition at 0.5 µg/mL was 17.8%, the inhibition at 1 µg/mL came to 34.3%, the inhibition at 5 µg/mL was 65.6% and the inhibition at 10 µg/mL was 80%. For the same compound, in assay [2] (setting [6]), the inhibition at 0.5 µg/mL is 21%, the inhibition at 1 µg/mL is 35.1% and the inhibition at 10 µg/mL was 73.4%. Moreover, in assay [2] (setting [7]), the inhibition at 5 µg/mL was 39.9%. Moreover, in assay [3], the inhibition at 0.5 µg/mL was determined as 0%, the inhibition at 1 µg/mL came to 0.1%, the inhibition at 5 µg/mL worked out at 5.2% and the inhibition at 10 µg/mL came out at 27.4%.

For the compound `C=CCOc1ccc(C(=O)/C=C/c2cc(OC)ccc2OC)cc1` [drawing 78], in assay [1], the inhibition at 0.5 µg/mL was 10 ± 9.7%, the inhibition at 1 µg/mL worked out at 15.6 ± 15.1%, the inhibition at 5 µg/mL was 63 ± 15.1% and the inhibition at 10 µg/mL is 89.4 ± 10.2%. Moreover, in assay [2] (setting [6]), the inhibition at 0.5 µg/mL is 0%, the inhibition at 1 µg/mL was 0% and the inhibition at 10 µg/mL was 80%. Also, in assay [2] (setting [7]), the inhibition at 5 µg/mL was 35%. In addition, in assay [3], the inhibition at 0.5 µg/mL is 5.7%, the inhibition at 1 µg/mL was 12.6%, the inhibition at 5 µg/mL is 4.3% and the inhibition at 10 µg/mL is 2.3%.

As to `C=CCOc1ccc(C(=O)/C=C/c2cccc(OC)c2OC)cc1` [drawing 81], in assay [1], the inhibition at 0.5 µg/mL worked out at 13.9 ± 12.9%, the inhibition at 1 µg/mL was determined as 20.7 ± 17.1%, the inhibition at 5 µg/mL worked out at 82.1 ± 13.6% and the inhibition at 10 µg/mL is 98.1 ± 1%. For the same compound, in assay [2] (setting [6]), the inhibition at 0.5 µg/mL was 0%, the inhibition at 1 µg/mL is 17.2% and the inhibition at 10 µg/mL was 73.1%. The inhibition at 5 µg/mL in assay [2] (setting [7]) is 68.2%. Further, in assay [3], the inhibition at 0.5 µg/mL was 10.8%, the inhibition at 1 µg/mL is 14.2%, the inhibition at 5 µg/mL is 8.8% and the inhibition at 10 µg/mL is 13.8%.

Take `C=CCOc1ccc(C(=O)/C=C/c2ccc(OC)cc2OC)cc1` [drawing 82]: the inhibition at 0.5 µg/mL in assay [1] was 35.4%; in assay [2] (setting [6]), 31.1%; in assay [3], 0%. The inhibition at 1 µg/mL in assay [1] was 62.8%; in assay [2] (setting [6]) it was 36.5%; in assay [3], 1.7%. Further, the inhibition at 5 µg/mL in assay [1] is 71.4%; in assay [2] (setting [7]) it was 74.4%; in assay [3], 5.9%. The inhibition at 10 µg/mL in assay [1] is 85.4%; in assay [2] (setting [6]), 97.3%; in assay [3] it was 5.5%.

Values taken from patent US6603046B1, “Bis-aromatic a,β-unsaturated ketones” (Lica Pharmaceuticals A/S, priority 1992, dated 2003).
